# pKi: −log10 of the molar value.
# Target: T1, casein kinase 1ε (Homo sapiens, UniProt P49674)
# T1 construct: made in house
# Experiment: Casein Kinase Epsilon 33P-ATP Filter Plate Assay for Screening CK1ε Inhibitors
# Assay type: biochemical
# Experimental: Casein Kinase Epsilon ^33P-ATP Filter Plate Assay for Screening CK1ε Inhibitors
# Purpose: This assay measures the ability of compounds to inhibit the phosphorylation of the substrate casein by the enzyme casein kinase 1ε using an in vitro ^33P-ATP filtration assay.
# The above are stored as 100 μL aliquots at minus 80° C. • Compounds: • Supply compounds for testing as frozen 10 mM compound stock dissolved in 100% DMSO. Assay Conditions: • Final total assay volume per well is equal to 50 μL that one prepares as follows: • 5 μL of diluted compound stock (10, 1, 0.1, 0.01 or 0.001 μM), • 5 μL of dephosphorylated casein final concentration 0.2 μg/μL, • 20 μL of CK1ε final concentration 3 ng/μL, and • 20 μL of γ-^33P-ATP final concentration 0.02 μCi/μL mixed with cold ATP (10 μM final). Methodology: • 1. Prepare 500 mL of fresh assay buffer: 50 mM Tris pH 7.5, 10 nm MgCl2, 2 mM DTT and 1 mM EGTA • 2. Obtain compounds to be evaluated as 10 μL of 10 mM stock dissolved in 100% DMSO. Use a Biomek 2000 liquid handling robot, make serial dilutions to yield 10, 1, 0.1, 0.01 and 0.001 μM final compound dilutions added as 5 μL additions to Falcon U bottom plates. […] A routine screening assay will consist of 32 compounds, which equals 4 assay plates. • 3.
# • 4. Add 5 μL of compound as indicated, then add 5 μL of dephosphorylated casein (dissolved in distilled H20) (0.2 μg/μL) and 20 μL CK1ε (3 ng/μL) to the appropriate wells. • 5. Finally add 20 μL γ-^33P-ATP (0.02 μCi/μL)/10 μM cold ATP (equals approximately 2×10^6 CPM per well). • 6. Vortes the Falcon U-Bottom assay plate containing the above 50 μL reaction volume and then incubate at room temperature for 2 hours. • 7. At the end of 2 hours, stop the reaction by the addition of 65 μL of ice cold 2 mM cold ATP (made up in assay buffer) to the assay plates using a Beckman Multimek. • 8. At the same time add 25 μL 100% ice cold TCA made up in distilled H20 to a matching number of Millipore MAPH filter plates. • 9. Using a handheld 8-channel pipettor, transfer 100 μL of the reaction mixture from the Falcon U-Bottom Plate to the Millipore MAPH filter plates presoaked with TCA. • 10. Mix the Millipore MAPH filter plates gently and allow to sit at room temperature for at least 30 minutes to precipitate the proteins. • 11. After 30 minutes, place the filter plates on a Millipore vacuum manifold and filter at no more than 8 mm Hg as the MAPH filters tend to “air lock” at higher vacuum settings. • 12. […] Allow the plates to dry overnight at room temperature. The next day add 40 μL Packard Microscint-20 Scintillation Fluid per well using a Titertek Multidrop dispenser; seal the plates and count for 2 minutes/well in a Packard Topcount NXT Scintillation Counter (to provide CPM values/well). Calculation: • 1. Import Counts Per Minute (CPM) data into a proprietary data calculation and archiving database (Activity Base by IDBS version 5.0). • 2. Column 1 for each plate reflects total phosphorylation activity of the enzyme in the absence of any inhibiting compound and thus represents 100%. Column 12 reflects any nonspecific phosphorylation/retained radioactivity activity in the absence of inhibiting compound and enzyme. Typically one observes approximately 1% of Total CPMs that are “nonspecific”. • 3.
# T1 sequence (P49674 whole entry): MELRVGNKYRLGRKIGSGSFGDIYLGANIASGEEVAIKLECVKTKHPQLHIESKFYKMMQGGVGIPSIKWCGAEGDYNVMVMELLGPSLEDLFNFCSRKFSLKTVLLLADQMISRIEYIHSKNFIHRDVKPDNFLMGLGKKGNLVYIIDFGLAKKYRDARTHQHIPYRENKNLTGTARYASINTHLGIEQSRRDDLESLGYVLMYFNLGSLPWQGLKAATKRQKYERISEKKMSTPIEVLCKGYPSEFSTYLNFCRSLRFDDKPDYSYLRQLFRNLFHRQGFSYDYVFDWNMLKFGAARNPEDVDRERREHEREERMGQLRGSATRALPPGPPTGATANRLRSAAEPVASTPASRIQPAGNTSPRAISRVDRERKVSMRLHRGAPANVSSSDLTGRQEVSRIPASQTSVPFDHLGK
row,Structure (SMILES),pKi
1,"NC(=O)c1[nH]c2ccc(CN3CCC(CO)CC3)cc2c1Sc1ccccc1 [Ih, 5-(4-Hydroxymethylpiperidin-1-ylmethyl)-3-phenylsulfanyl-1H-indole-2-carboxylic acid amide]",5.76
2,"NC(=O)c1[nH]c2ccc(CNc3ccc4ncccc4c3)cc2c1Sc1ccccc1 [Iu, 3-Phenylsulfanyl-5-(quinolin-6-ylaminomethyl)-1H-indole-2-carboxylic acid amide]",6.22
3,"CC(C)NCc1ccc2[nH]c(C(N)=O)c(Sc3ccccc3)c2c1 [Iaj, 5-(Isopropylaminomethyl)-3-phenylsulfanyl-1H-indole-2-carboxylic acid amide]",6.27
4,"COC(=O)c1ccc(CNCc2ccc3c(Sc4ccccc4)c(C(N)=O)[nH]c3c2)cc1 [IIam, 4-{[(2-Carbamoyl-3-phenylsulfanyl-1H-indol-6-ylmethyl)amino]methyl}benzoic acid methyl ester]",5.62
5,"NC(=O)c1[nH]c2cc(CNCc3ccc(Cl)cc3)ccc2c1Sc1ccccc1 [IIi, 6-[(4-Chlorobenzylamino)methyl]-3-phenylsulfanyl-1H-indole-2-carboxylic acid amide]",6.41
6,"COc1cccc(NCc2ccc3[nH]c(C(N)=O)c(Sc4ccccc4)c3c2)c1 [Iag, 5-[(3-Methoxyphenylamino)methyl]-3-phenylsulfanyl-1H-indole-2-carboxylic acid amide]",5.65
7,"NC(=O)c1[nH]c2cc(CNCc3cc(F)cc(C(F)(F)F)c3)ccc2c1Sc1ccccc1 [IIn, 6-[(3-Fluoro-5-trifluoromethylbenzylamino)methyl]-3-phenylsulfanyl-1H-indole-2-carboxylic acid amide]",5.30
8,"NC(=O)c1[nH]c2cc(CNCc3ccc([N+](=O)[O-])o3)ccc2c1Sc1ccccc1 [IIau, 6-{[(5-Nitrofuran-2-ylmethyl)amino]methyl}-3-phenylsulfanyl-1H-indole-2-carboxylic acid amide]",6.15
9,"NC(=O)c1[nH]c2cc(CNCc3ccc(C=Cc4ccccc4)cc3)ccc2c1Sc1ccccc1 [IIao, 3-Phenylsulfanyl-6-[(4-styrylbenzylamino)methyl]-1H-indole-2-carboxylic acid amide]",< 5.00
10,"CCCCc1ccc(NCc2ccc3[nH]c(C(N)=O)c(Sc4ccccc4)c3c2)cc1 [Iah, 5-[(4-Butylphenylamino)methyl]-3-phenylsulfanyl-1H-indole-2-carboxylic acid amide]",5.37
11,"COc1ccc(CNCc2ccc3c(Sc4ccccc4)c(C(N)=O)[nH]c3c2)cc1 [IIg, 6-[(4-Methoxybenzylamino)methyl]-3-phenylsulfanyl-1H-indole-2-carboxylic acid amide]",6.28
12,"NC(=O)c1[nH]c2cc(CNCc3cccc(Oc4ccccc4)c3)ccc2c1Sc1ccccc1 [IIx, 6-[(3-Phenoxybenzylamino)methyl]-3-phenylsulfanyl-1H-indole-2-carboxylic acid amide]",5.92
13,"COc1cc(CNCc2ccc3c(Sc4ccccc4)c(C(N)=O)[nH]c3c2)cc(Br)c1OC [IIai, 6-[(3-Bromo-4,5-dimethoxybenzylamino)methyl]-3-phenylsulfanyl-1H-indole-2-carboxylic acid amide]",6.22
14,NC(=O)c1[nH]c2cc(CNC(=O)[C@@H](N)Cc3c[nH]c4ccccc34)ccc2c1Sc1ccccc1 [IIs],7.00
15,"NCC(=O)NCc1ccc2c(Sc3ccccc3)c(C(N)=O)[nH]c2c1 [IIp, 6-[(2-Aminoacetylamino)methyl]-3-phenylsulfanyl-1H-indole-2-carboxylic acid amide]",6.92
16,"COc1ccc(CNCc2ccc3c(Sc4ccccc4)c(C(N)=O)[nH]c3c2)c(OC)c1 [IIw, 6-[(2,4-Dimethoxybenzylamino)methyl]-3-phenylsulfanyl-1H-indole-2-carboxylic acid amide]",6.54
17,"COc1cc(CNCc2ccc3c(Sc4ccccc4)c(C(N)=O)[nH]c3c2)ccc1OCc1ccccc1 [IIaj, 6-[(4-Benzyloxy-3-methoxybenzylamino)methyl]-3-phenylsulfanyl-1H-indole-2-carboxylic acid amide]",5.68
18,"NC(=O)c1[nH]c2cc(CNCc3ccc(C(F)(F)F)cc3)ccc2c1Sc1ccccc1 [IIm, 3-Phenalsulfanyl-6-[(4-trifluoromethylbenzylamino)methyl]-1H-indole-2-carboxylic acid amide]",5.31
19,"CC(N)C(=O)NCc1ccc2c(Sc3ccccc3)c(C(N)=O)[nH]c2c1 (stereo not shown) [IIo, 6-[(2-Aminopropionylamino)methyl]-3-phenylsulfanyl-1H-indole-2-carboxylic acid amide]",6.77
20,"NC(=O)CC[C@H](N)C(=O)NCc1ccc2c(Sc3ccccc3)c(C(N)=O)[nH]c2c1 [IIr, 2-Aminopentanedioic acid 5-amide 1-[(2-carbamoyl-3-phenylsulfanyl-1H-indol-6-ylmethyl)-amide]]",6.57
21,"COc1cccc(CNCc2ccc3c(Sc4ccccc4)c(C(N)=O)[nH]c3c2)c1 [IIy, 6-[(3-Methoxybenzylamino)methyl]-3-phenylsulfanyl-1H-indole-2-carboxylic acid amide]",6.42
22,"NC(=O)c1[nH]c2cc(CNCc3ccc([N+](=O)[O-])s3)ccc2c1Sc1ccccc1 [IIal, 6-{[(5-Nitrothiophen-2-ylmethyl)amino]methyl}-3-phenylsulfanyl-1H-indole-2-carboxylic acid amide]",5.92

row,Structure (SMILES),pKi
1,"NC(=O)c1[nH]c2ccc(CN3CCCC(C(N)=O)C3)cc2c1Sc1ccccc1 (stereo not shown) [Io, 5-(3-Carbamoylpiperidin-1-ylmethyl)-3-phenylsulfanyl-1H-indole-2-carboxylic acid amide]",~5.00
2,"NC(=O)c1[nH]c2cc(CNCc3ccc(-c4ccccc4)cc3)ccc2c1Sc1ccccc1 [IIj, 6-{[(Biphenyl-4-ylmethyl)amino]methyl}-3-phenylsulfanyl-1H-indole-2-carboxylic acid amide]",5.86
3,"NC(=O)c1[nH]c2ccc(CNCc3ccccc3)cc2c1Sc1ccccc1 [If, 5-(Benzylaminomethyl)-3-phenylsulfanyl-1H-indole-2-carboxylic acid amide]",6.15
4,"NC(=O)c1[nH]c2ccc(CN3CCCCC3)cc2c1Sc1ccccc1 [Il, 3-Phenylsulfanyl-5-piperidin-1ylmethyl-1H-indole-2-carboxylic acid amide]",6.06
5,"NC(=O)c1[nH]c2cc(CN(Cc3ccc([N+](=O)[O-])o3)Cc3ccc([N+](=O)[O-])o3)ccc2c1Sc1ccccc1 [IIat, 6-{[Bis-(5-nitrofuran-2-ylmethyl)amino]methyl}-3-phenylsulfanyl-1H-indole-2-carboxylic acid amide]",< 5.00
6,"CCNCc1ccc2[nH]c(C(N)=O)c(Sc3ccccc3)c2c1 [Iad, 5-Ethylaminomethyl-3-phenylsulfanyl-1H-indole-2-carboxylic acid amide]",7.05
7,"CCCCNCc1ccc2[nH]c(C(N)=O)c(Sc3ccccc3)c2c1 [Ik, 5-Butylaminomethyl-3-phenylsulfanyl-1H-indole-2-carboxylic acid amide]",7.03
8,"CC(CO)(CO)NCc1ccc2[nH]c(C(N)=O)c(Sc3ccccc3)c2c1 [Iv, 5-[(2-Hydroxy-1-hydroxymethyl-1-methyl-ethylamino)methyl]-3-phenylsulfanyl-1H-indole-2-carboxylic acid amide]",6.44
9,"NC(=O)c1[nH]c2ccc(CN3CCN(c4ccc(F)cc4)CC3)cc2c1Sc1ccccc1 [Iaa, 5-[4-(4-Fluorophenyl)piperazin-1-ylmethyl]-3-phenylsulfanyl-1H-indole-2-carboxylic acid amide]",< 5.00
10,COc1ccc2ccccc2c1CNCc1ccc2c(Sc3ccccc3)c(C(N)=O)[nH]c2c1 [IIv],6.00
11,"CN(C)c1ccc(CNCc2ccc3c(Sc4ccccc4)c(C(N)=O)[nH]c3c2)cc1 [IIe, 6-[(4-Dimethylaminobenzylamino)methyl]-3-phenylsulfanyl-1H-indole-2-carboxylic acid amide]",6.14
12,"NC(=O)c1[nH]c2cc(CNCc3c4ccccc4c(Cl)c4ccccc34)ccc2c1Sc1ccccc1 [IIaf, 6-{[(10-Chloro-anthracen-9-ylmethyl)amino]methyl}-3-phenylsulfanyl-1H-indole-2-carboxylic acid amide]",5.32
13,"CCCNCc1ccc2[nH]c(C(N)=O)c(Sc3ccccc3)c2c1 [Ij, 3-Phenylsulfanyl-5-propylaminomethyl-1H-indole-2-carboxylic acid amide]",6.70
14,"NC(=O)c1[nH]c2ccc(CN3CCOCC3)cc2c1Sc1ccccc1 [Ii, 5-Morpholin-4-ylmethyl-3-phenylsulfanyl-1H-indole-2-carboxylic acid amide]",6.62
15,"COc1cc(C#N)c(NCc2ccc3[nH]c(C(N)=O)c(Sc4ccccc4)c3c2)cc1OC [Iab, 5-[(2-Cyano-4,5-dimethoxyphenylamino)methyl]-3-phenylsulfanyl-1H-indole-2-carboxylic acid amide]",< 5.00
16,"NC(=O)c1[nH]c2cc(CNCc3cc(Cl)cc(Cl)c3O)ccc2c1Sc1ccccc1 [IIah, 6-[(3,5-Dichloro-2-hydroxybenzylamino)methyl]-3-phenylsulfanyl-1H-indole-2-carboxylic acid amide]",5.46
17,"NC(=O)c1[nH]c2cc(CNCc3cccc([N+](=O)[O-])c3)ccc2c1Sc1ccccc1 [IIk, 6-[(3-Nitrobenzylamino)methyl]-3-phenylsulfanyl-1H-indole-2-carboxylic acid amide]",5.92
18,"COc1ccccc1CNCc1ccc2c(Sc3ccccc3)c(C(N)=O)[nH]c2c1 [IIac, 6-[(2-Methoxybenzylamino)methyl]-3-phenylsulfanyl-1H-indole-2-carboxylic acid amide]",6.62
19,"NC(=O)c1[nH]c2ccc(CNc3cccc(C(F)(F)F)c3)cc2c1Sc1ccccc1 [Iac, 3-Phenylsulfanyl-5-[(3-trifluoromethyl-phenylamino)methyl]-1H-indole-2-carboxylic acid amide]",~5.00
20,"CC(NCc1ccc2[nH]c(C(N)=O)c(Sc3ccccc3)c2c1)C(N)=O (stereo not shown) [Iaf, 5-[(1-Carbamoylethylamino)methyl]-3-phenylsulfanyl-1H-indole-2-carboxylic acid amide]",6.41
21,"Cc1cccc(CNCc2ccc3c(Sc4ccccc4)c(C(N)=O)[nH]c3c2)c1 [IIaa, 6-[(3-Methylbenzylamino)methyl]-3-phenylsulfanyl-1H-indole-2-carboxylic acid amide]",6.34
